Results reported in patent publication US12281225B2, “Process for preparing stable polymers containing vinylimidazole” (BASF SE, priority 2018, dated 2025).

Columns and labels:
[1] = Physical stability; visual assessment (color, turbidity, phase separation); format: physicochemical; design: key: ++: no discernible change with respect to color, turbidity or phase separation; +: marginal change in color number, somewhat increased Tyndall effect but no turbidity; 0: easily discernible increase in color number and moderate turbidity−no phase separation; −: turbidity and change in color number readily discernible by visual assessment; −−: strong color change with strong turbidity and incipient phase separation
Text: Physical stability; visual assessment according to:
++=no discernible change with respect to color, turbidity or phase separation; +=marginal change in color number, somewhat increased Tyndall effect but no turbidity; 0=easily discernible increase in color number and moderate turbidity−no phase separation; − turbidity and change in color number readily discernible by visual assessment; −− strong color change with strong turbidity and incipient phase separation.
Before storage, all batches could be rated ++ (no turbidity or phase separation; no influence of the biocide on the color number of the product).

[2] = test system: Bacteria: Escherichia coli, Staphylococcus aureus, Pseudomonas aeruginosa, Pseudomonas putida, Burkholderia cepacia, Alcaligenes faecalis; assay: Preservation test with periodic inoculation, bacteria assessment; format: cell-based; conditions: sample stored 60 d at 40° C.
Description: (§1) Microbiological results at the start (freshly formulated, i.e. 4-week test series is started immediately) and after 60 days of storage at 40° C. (i.e. the 4-week microbial testing is started with the sample stored at 40° C. for 60 days)
(§2) The test described below is carried out in order to ascertain the preserving effect of chemical preservatives in aqueous products and systems, the principle of the described method reflecting the efficacy of chemical preservatives with respect to pot-maintenance of aqueous products/systems under conditions corresponding to the use of laundry products/consumer products by the consumer. For this purpose, the preservatives to be tested are added in those concentrations which correspond to from the literature or to the manufacturer data from the suppliers (e.g. Thor, Speyer). In said test, our orientation was toward the upper range, which, with the exception of VI-containing polymers, had always led to excellent results in the case of aqueous polymers for laundry.
(§3) A constant microorganism load is achieved by periodic inoculation of the test batches. Before the swabs of each batch made respectively immediately in parallel with the inoculation. The assessment is made on the basis of the microbial growth of the streaks.
(§4) When carrying out said tests, 25 g of the polymer to be tested are weighed in each case into a vessel with a screw cap. The preservatives to be tested are each added in separate batches according to the specified use concentrations. An unpreserved product sample was used in each case for the growth control. Two days after the addition of the preservative, the samples are infected with 0.5 ml of inoculum (2% w/w). The titer of this inoculant solution is 10^9 organisms per ml. The following microorganisms are the test organisms for the preservation test:
(§5) • Escherichia coli • Staphylococcus aureus • Pseudomonas aeruginosa • Pseudomonas putida • Burkholderia cepacia • Alcaligenes faecalis Yeast: • Candida albicans • Candida valida • Rhodotorula rura • Saccharomyces cerevisiae
(§6) The test batches are inoculated four times altogether and once a week and are streaked on an agar plate once a week; the first streaking is done immediately before the new inoculation. Microbial growth on the agar surface is assessed after a three-day incubation at 25° C. As a precaution, negative swabs are additionally observed for a further three days and reassessed. The preserving effect is effected in a semiquantitative method via the growth of the individual streaks in accordance with the assessment from − via + to +++. The preservative result is repeatedly demonstrably robust, i.e. +++− defines the microbial growth.
(§7) When assessing the results, it is assumed that a preservative can be regarded as good if there are batches under the above-described laboratory conditions for a period of four weeks without microbial invasion of the sample, and that, even after the fourth inoculation, no microbial attacks occur growth can be identified. • −−: no growth • −: slight growth, max. 100 colonies • 0: moderate growth, max. 400 colonies • +: uniform growth with individual colonies still easily identifiable • ++: strong growth; too many colonies to be counted, already some extensive growth

[3] = test system: Yeast: Candida albicans, Candida valida, Rhodotorula rura, Saccharomyces cerevisiae; assay: Preservation test with periodic inoculation, yeast assessment; format: cell-based; conditions: for Start sample measurement, yeast assess., 4th inoculation: freshly formulated; for 60 d 40° C., yeast assess., 4th inoculation: sample stored 60 d at 40° C.
Description: as §1, §2, §3, §4, §5, §6, §7

For `CCCCCCCCCCCCCCCC[n+]1ccccc1` [CPC, cetylpyridinium chloride], the “Physical stability, 60 d 40° C.*” value ([1]; Polymer P1 with stabilizer) was “+”, the “Physical stability, 60 d 40° C.*” value ([1]; Polymer P2 with stabilizer) was “+” and the “Physical stability, 60 d 40° C.*” value ([1]; Polymer P3 with stabilizer) was “+”. The “Physical stability, 60 d 40° C.*” value ([1]; Polymer P4 with stabilizer) was “+”, the “Physical stability, 60 d 40° C.*” value ([1]; Polymer P5 (HP56) with stabilizer) was “+” and the “Physical stability, 60 d 40° C.*” value ([1]; Polymer P6 with stabilizer) was “+”. For the same molecule, the “Physical stability, 60 d 40° C.*” value ([1]; Polymer P7 with stabilizer) was “+”, the “Physical stability, 60 d 40° C.*” value ([1]; Polymer P8 with stabilizer) was “+” and the “Physical stability, 60 d 40° C.*” value ([1]; Polymer P9 with stabilizer) was “+”. For the same molecule, the “60 d 40° C., bact. assess., 4th inoculation” value ([2]; Polymer P1) was “− (slight growth, max. 100 colonies)”, the “60 d 40° C., bact. assess., 4th inoculation” value ([2]; Polymer P2) was “− (slight growth, max. 100 colonies)” and the “60 d 40° C., bact. assess., 4th inoculation” value ([2]; Polymer P3) was “− (slight growth, max. 100 colonies)”. The “60 d 40° C., bact. assess., 4th inoculation” value ([2]; Polymer P4) was 0 (moderate growth, max. 400 colonies), the “60 d 40° C., bact. assess., 4th inoculation” value ([2]; Polymer P5 (HP56)) was “− (slight growth, max. 100 colonies)” and the “60 d 40° C., bact. assess., 4th inoculation” value ([2]; Polymer P6) was “− (slight growth, max. 100 colonies)”. The “60 d 40° C., bact. assess., 4th inoculation” value ([2]; Polymer P7) was “− (slight growth, max. 100 colonies)”, the “Start sample measurement, yeast assess., 4th inoculation” value (“Start sample measurement” for short) ([3]; Polymer P1) was “− (slight growth, max. 100 colonies)” and the “60 d 40° C., yeast assess., 4th inoculation” value ([3]; Polymer P1) was “− (slight growth, max. 100 colonies)”. For the same molecule, the “Start sample measurement” value ([3]; Polymer P2) was “− (slight growth, max. 100 colonies)”, the “60 d 40° C., yeast assess., 4th inoculation” value ([3]; Polymer P2) was “− (slight growth, max. 100 colonies)” and the “Start sample measurement” value ([3]; Polymer P3) was “− (slight growth, max. 100 colonies)”. The “60 d 40° C., yeast assess., 4th inoculation” value ([3]; Polymer P3) was 0 (moderate growth, max. 400 colonies), the “Start sample measurement” value ([3]; Polymer P4) was “− (slight growth, max. 100 colonies)” and the “60 d 40° C., yeast assess., 4th inoculation” value ([3]; Polymer P4) was 0 (moderate growth, max. 400 colonies). The “Start sample measurement” value ([3]; Polymer P5 (HP56)) was “− (slight growth, max. 100 colonies)”, the “60 d 40° C., yeast assess., 4th inoculation” value ([3]; Polymer P5 (HP56)) was 0 (moderate growth, max. 400 colonies) and the “Start sample measurement” value ([3]; Polymer P6) was “− (slight growth, max. 100 colonies)”. For the same molecule, the “60 d 40° C., yeast assess., 4th inoculation” value ([3]; Polymer P6) was 0 (moderate growth, max. 400 colonies), the “Start sample measurement” value ([3]; Polymer P7) was “− (slight growth, max. 100 colonies)” and the “60 d 40° C., yeast assess., 4th inoculation” value ([3]; Polymer P7) was 0 (moderate growth, max. 400 colonies). For the same molecule, the “Start sample measurement” value ([3]; Polymer P8) was “− (slight growth, max. 100 colonies)”, the “60 d 40° C., yeast assess., 4th inoculation” value ([3]; Polymer P8) was 0 (moderate growth, max. 400 colonies) and the “Start sample measurement” value ([3]; Polymer P9) was “− (slight growth, max. 100 colonies)”. The “60 d 40° C., yeast assess., 4th inoculation” value ([3]; Polymer P9) was “− (slight growth, max. 100 colonies)”.
